Consider four cell lines from the supplement of paper PMC10307832.

What all share (test): relative viability (nuclei count vs DMSO), 5 days (fraction); higher = more cells survive
Compound in the assay “Ruxolitinib + AZD7762”: N#CC[C@H](C1CCCC1)n1cc(-c2ncnc3[nH]ccc23)cn1 [Ruxolitinib] + NC(=O)Nc1cc(-c2cccc(F)c2)sc1C(=O)N[C@H]1CCCNC1 [AZD7762] (partner 0.2 µM)
A digest of the protocol:
(§1)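 Medians of duplicate plates are given as relative viability. That measure is the nuclei count in treated wells divided by the count in vehicle wells. Counts were taken on 4× images of lung cancer cell lines in 1536-well plates, 5 days after pin-tool dosing the day after seeding with one drug alone or a fixed anchor-drug dose plus five library-drug doses (not always all listed) in √10 steps.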

Compound in the assay “Vismodegib + Trametinib”: CS(=O)(=O)c1ccc(C(=O)Nc2ccc(Cl)c(-c3ccccn3)c2)c(Cl)c1 [Vismodegib] + CC(=O)Nc1cccc(-n2c(=O)n(C3CC3)c(=O)c3c(Nc4ccc(I)cc4F)n(C)c(=O)c(C)c32)c1 [Trametinib] (partner 0.02 µM)
The method in brief: as §1

Compound in the assay “VE-821 + Trametinib”: CS(=O)(=O)c1ccc(-c2cnc(N)c(C(=O)Nc3ccccc3)n2)cc1 [VE-821] + CC(=O)Nc1cccc(-n2c(=O)n(C3CC3)c(=O)c3c(Nc4ccc(I)cc4F)n(C)c(=O)c(C)c32)c1 [Trametinib] (partner 0.02 µM)
A digest of the protocol: as §1

Compound in the assay “Ruxolitinib + Olaparib”: N#CC[C@H](C1CCCC1)n1cc(-c2ncnc3[nH]ccc23)cn1 [Ruxolitinib] + O=C(c1cc(Cc2n[nH]c(=O)c3ccccc23)ccc1F)N1CCN(C(=O)C2CC2)CC1 [Olaparib] (partner 8 µM)
A digest of the protocol: as §1

As for NCI-H1651, the relative viability with Ruxolitinib + AZD7762 (first compound 0.08 µM) amounted to 0.512; with Ruxolitinib + AZD7762 (first compound 0.253 µM), 0.449; with Ruxolitinib + AZD7762 (first compound 0.8 µM), 0.533; with Ruxolitinib + AZD7762 (first compound 2.53 µM) it was 0.545; with Ruxolitinib + AZD7762 (first compound 8 µM), 0.689; with Vismodegib + Trametinib (first compound 0.08 µM), 0.813. Also, the relative viability in the assay with Vismodegib + Trametinib (first compound 0.253 µM) was found to be 0.822; with Vismodegib + Trametinib (first compound 0.8 µM), 0.81; with Vismodegib + Trametinib (first compound 2.53 µM), 0.815; with Vismodegib + Trametinib (first compound 8 µM), 0.84; with VE-821 + Trametinib (first compound 0.08 µM), 0.876; with VE-821 + Trametinib (first compound 0.253 µM) it was 0.799. For the same cell line, the relative viability turned out to be 0.733 in the assay with VE-821 + Trametinib (first compound 0.8 µM); 0.808 in the assay with VE-821 + Trametinib (first compound 2.53 µM); 0.821 with VE-821 + Trametinib (first compound 8 µM); 0.192 with Ruxolitinib + Olaparib (first compound 0.08 µM); 0.179 with Ruxolitinib + Olaparib (first compound 0.253 µM); 0.189 with Ruxolitinib + Olaparib (first compound 0.8 µM). Moreover, the figures for the relative viability with Ruxolitinib + Olaparib (first compound 2.53 µM) and with Ruxolitinib + Olaparib (first compound 8 µM) were 0.198 and 0.211, respectively.
On to NCI-H1666, for which the relative viability worked out at 0.869 with Ruxolitinib + AZD7762 (first compound 0.08 µM); 0.868 with Ruxolitinib + AZD7762 (first compound 0.253 µM); 0.921 with Ruxolitinib + AZD7762 (first compound 0.8 µM); 0.841 in the assay with Ruxolitinib + AZD7762 (first compound 2.53 µM); 0.974 in the assay with Ruxolitinib + AZD7762 (first compound 8 µM); 0.816 with Vismodegib + Trametinib (first compound 0.08 µM). The relative viability with Vismodegib + Trametinib (first compound 0.253 µM) turned out to be 0.852; in the assay with Vismodegib + Trametinib (first compound 0.8 µM), 0.836; with Vismodegib + Trametinib (first compound 2.53 µM) it was 0.899; with Vismodegib + Trametinib (first compound 8 µM) it was 0.904; in the assay with VE-821 + Trametinib (first compound 0.08 µM), 0.833; in the assay with VE-821 + Trametinib (first compound 0.253 µM) it was 0.809. The relative viability in the assay with VE-821 + Trametinib (first compound 0.8 µM) was 0.867; with VE-821 + Trametinib (first compound 2.53 µM), 0.718; in the assay with VE-821 + Trametinib (first compound 8 µM), 0.85; with Ruxolitinib + Olaparib (first compound 0.08 µM), 0.74; in the assay with Ruxolitinib + Olaparib (first compound 0.253 µM), 0.759; with Ruxolitinib + Olaparib (first compound 0.8 µM) it was 0.797. Also, the relative viability with Ruxolitinib + Olaparib (first compound 2.53 µM) was found to be 0.786; in the assay with Ruxolitinib + Olaparib (first compound 8 µM) it was 0.698.
With NCI-H1734, the relative viability with Ruxolitinib + AZD7762 (first compound 0.08 µM) is 0.638; in the assay with Ruxolitinib + AZD7762 (first compound 0.253 µM), 0.629; with Ruxolitinib + AZD7762 (first compound 0.8 µM), 0.662; with Ruxolitinib + AZD7762 (first compound 2.53 µM), 0.54; with Ruxolitinib + AZD7762 (first compound 8 µM), 0.602; with Vismodegib + Trametinib (first compound 0.08 µM) it was 0.627. Also, the relative viability amounted to 0.566 with Vismodegib + Trametinib (first compound 0.253 µM); 0.636 in the assay with Vismodegib + Trametinib (first compound 0.8 µM); 0.689 in the assay with Vismodegib + Trametinib (first compound 2.53 µM); 0.817 in the assay with Vismodegib + Trametinib (first compound 8 µM); 0.718 with VE-821 + Trametinib (first compound 0.08 µM); 0.732 with VE-821 + Trametinib (first compound 0.253 µM). In addition, the relative viability with VE-821 + Trametinib (first compound 0.8 µM) was determined as 0.651; in the assay with VE-821 + Trametinib (first compound 2.53 µM), 0.723; with VE-821 + Trametinib (first compound 8 µM) it was 0.587; with Ruxolitinib + Olaparib (first compound 0.08 µM), 0.605; with Ruxolitinib + Olaparib (first compound 0.253 µM), 0.554; with Ruxolitinib + Olaparib (first compound 0.8 µM), 0.64. Besides, the relative viability with Ruxolitinib + Olaparib (first compound 2.53 µM) was found to be 0.56; with Ruxolitinib + Olaparib (first compound 8 µM) it was 0.583.
With NCI-H1755, the relative viability with Ruxolitinib + AZD7762 (first compound 0.08 µM) worked out at 0.497; with Ruxolitinib + AZD7762 (first compound 0.253 µM) it was 0.465; with Ruxolitinib + AZD7762 (first compound 0.8 µM), 0.573; with Ruxolitinib + AZD7762 (first compound 2.53 µM), 0.471; with Ruxolitinib + AZD7762 (first compound 8 µM), 0.343; in the assay with Vismodegib + Trametinib (first compound 0.08 µM), 0.82. Also, the relative viability in the assay with Vismodegib + Trametinib (first compound 0.253 µM) was determined as 0.765; with Vismodegib + Trametinib (first compound 0.8 µM) it was 0.78; with Vismodegib + Trametinib (first compound 2.53 µM), 0.709; with Vismodegib + Trametinib (first compound 8 µM), 0.834; in the assay with VE-821 + Trametinib (first compound 0.08 µM) it was 0.86; with VE-821 + Trametinib (first compound 0.253 µM) it was 0.737. For the same cell line, the relative viability stood at 0.781 in the assay with VE-821 + Trametinib (first compound 0.8 µM); 0.711 in the assay with VE-821 + Trametinib (first compound 2.53 µM); 0.741 with VE-821 + Trametinib (first compound 8 µM); 0.897 in the assay with Ruxolitinib + Olaparib (first compound 0.08 µM); 0.812 in the assay with Ruxolitinib + Olaparib (first compound 0.253 µM); 0.925 with Ruxolitinib + Olaparib (first compound 0.8 µM). The results for the relative viability with Ruxolitinib + Olaparib (first compound 2.53 µM) and in the assay with Ruxolitinib + Olaparib (first compound 8 µM) were 0.772 and 0.792, respectively.
